The assay concerns P388 leukemia ip, CD2F1 mice, survival T/C. In words: NCI In Vivo Anticancer Drug Screen. Data for tumor model P388 Leukemia (intraperitoneal) in CD2F1 (CDF1) mice. The conditions noted are these: endpoint: median survival time, higher = longer survival. The essentials:
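Mice carrying the transplanted tumor received test compound or vehicle. Survival was recorded in each group, and the value is the treated-group measurement divided by that of the vehicle-treated control group.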

Where [1] appears, read: dose: 200.0 mg/kg/injection, schedule: Q01DX001 (ip), vehicle: Klucel (hydroxypropylcellulose) (HPC).

Where “and” joins values, the source holds several entries; their conditions need not be identical. Equal values may be shown once. Inconclusive results and toxic doses are left out.

As for `Cc1nc2ccc(CCN3CCN(c4ccccc4Cl)CC3)cc2[nH]1`, the T/C was 100 % of control (dose: 50.0 mg/kg/injection, schedule: Q01DX001 (ip), vehicle: Klucel (hydroxypropylcellulose) (HPC)); 108 % of control and 120 % of control (dose: 100.0 mg/kg/injection, schedule: Q01DX001 (ip), vehicle: Klucel (hydroxypropylcellulose) (HPC)); 116 % of control and 93 % of control under setting [1].
Take `c1ccc(-c2ccc(-c3cn4c(n3)SCC4)cc2)cc1`: the T/C under setting [1] was 91 % of control.
In the case of `Cn1c([N+](=O)[O-])cnc1N1CCN(c2nncs2)C1=O`, the T/C is, setting by setting: (dose: 60.0 mg/kg/injection, schedule: Q01DX005 (ip), vehicle: saline) 100 % of control; (dose: 120.0 mg/kg/injection, schedule: Q01DX005 (ip), vehicle: saline) 101 % of control; (dose: 240.0 mg/kg/injection, schedule: Q01DX005 (ip), vehicle: saline) 100 % of control.
As to `COC(=O)c1nc(N)nc(C(=O)OC)c1C(=O)c1cccnc1`, the T/C by setting is: (dose: 60.0 mg/kg/injection, schedule: Q01DX005 (ip), vehicle: Klucel (hydroxypropylcellulose) (HPC)) 95 % of control; (dose: 120.0 mg/kg/injection, schedule: Q01DX005 (ip), vehicle: Klucel (hydroxypropylcellulose) (HPC)) 93 % of control.
`COc1cc2c(NCCCCCO)ncnc2c(OC)c1OC`: the T/C is 105 % of control (dose: 50.0 mg/kg/injection, schedule: Q01DX009 (ip), vehicle: saline); 105 % of control (dose: 100.0 mg/kg/injection, schedule: Q01DX009 (ip), vehicle: saline); 102 % of control (dose: 200.0 mg/kg/injection, schedule: Q01DX009 (ip), vehicle: saline).
With `C=C1C(=O)OC2CC3(C)C=CC(=O)C(=C)C3CC12` (stereo not given), the T/C (dose: 12.5 mg/kg/injection, schedule: Q04DX003 (ip), vehicle: Klucel (hydroxypropylcellulose) (HPC)) was 104 % of control and the T/C (dose: 25.0 mg/kg/injection, schedule: Q04DX003 (ip), vehicle: Klucel (hydroxypropylcellulose) (HPC)) was 114 % of control.
Take `CCCCCCCCCCCCCCCCOc1ccccc1CNc1cc(C(F)(F)F)ccc1Cl`: the T/C (dose: 100.0 mg/kg/injection, schedule: Q04DX003 (ip), vehicle: other) is 95 % of control; the T/C (dose: 200.0 mg/kg/injection, schedule: Q04DX003 (ip), vehicle: other) is 100 % of control; the T/C (dose: 400.0 mg/kg/injection, schedule: Q04DX003 (ip), vehicle: other) was 90 % of control.
Consider `CCCC(NC(=O)C(C)N)C(=O)O` (stereo not given), for which the T/C (dose: 50.0 mg/kg/injection, schedule: Q01DX009 (ip), vehicle: Klucel (hydroxypropylcellulose) (HPC)) was 107 % of control; the T/C (dose: 100.0 mg/kg/injection, schedule: Q01DX009 (ip), vehicle: Klucel (hydroxypropylcellulose) (HPC)) was 95 % of control; the T/C (dose: 200.0 mg/kg/injection, schedule: Q01DX009 (ip), vehicle: Klucel (hydroxypropylcellulose) (HPC)) was 102 % of control; the T/C (dose: 400.0 mg/kg/injection, schedule: Q01DX009 (ip), vehicle: Klucel (hydroxypropylcellulose) (HPC)) is 102 % of control.
On to `COc1ccc(-c2cc(-c3ccccc3)[nH]c(=O)c2C#N)cc1`, for which the T/C is 101 % of control (dose: 12.5 mg/kg/injection, schedule: Q01DX009 (ip), vehicle: acid diluted with saline); 99 % of control (dose: 25.0 mg/kg/injection, schedule: Q01DX009 (ip), vehicle: acid diluted with saline); 101 % of control (dose: 50.0 mg/kg/injection, schedule: Q01DX009 (ip), vehicle: acid diluted with saline).
For `CS(=O)(=O)CCCCCCCCCCS(C)(=O)=O`, the T/C runs as follows: (dose: 100.0 mg/kg/injection, schedule: Q01DX001 (ip), vehicle: saline) 95 % of control; (dose: 200.0 mg/kg/injection, schedule: Q01DX001 (ip), vehicle: saline) 100 % of control; (dose: 400.0 mg/kg/injection, schedule: Q01DX001 (ip), vehicle: saline) 93 % of control.
With `Clc1ccccc1N1CCN(CCCN2CCN(c3ccccc3Cl)CC2)CC1`, the T/C reads like this: (dose: 25.0 mg/kg/injection, schedule: Q01DX009 (ip), vehicle: saline with Tween-80) 97 % of control; (dose: 50.0 mg/kg/injection, schedule: Q01DX009 (ip), vehicle: saline with Tween-80) 94 % of control; (dose: 100.0 mg/kg/injection, schedule: Q01DX009 (ip), vehicle: saline with Tween-80) 100 % of control.
